Reference: paper PMC8765781, “A platform of assays for the discovery of anti-Zika small-molecules with activity in a 3D-bioprinted outer-blood-retina model” (PLoS ONE, 2022)
Where two headings read alike, the source gives them in different places.

Assays:
[1] = tested on: ZIKV-RLuc (Cambodian strain FSS13025); assay: microbe, parasite or virus in culture; assay type: cell-based, Zika virus
[2] = tested on: Vero cells
[3] = Zika virus, Vero, read-out: Log AC50 (M) (converted)

Row | Compound | CC-v2 (curve class classification v2 of the dose response curve) [1] | Efficacy (difference between neutral response and maximum compound response) [1] | Max Resp (difference between neutral response and compound response for highest compound concentration) [1] | AC50 ([1]; Zika virus, Vero) [M] | AC50 [1, 3] [M] | AC50 [2] [µM] | Log AC50 (M) [2] [M] | AC50 [1] [M] | Log AC50 (M) [1]
1 | CC(C)(O)/C=C\C(=O)[C@](C)(O)[C@H]1[C@H](O)C[C@]2(C)[C@@H]3CC=C4[C@@H](C=C(O)C(=O)C4(C)C)[C@]3(C)C(=O)C[C@@]12C [NCGC00014911-01] | -1.1 | -103.985 | -99.739 | 3.29e-06 | 3.29e-06 | 3.29 | -5.4827 |  | 
2 | CCCCc1oc2ccccc2c1C(=O)c1cc(I)c(OCCN(CC)CC)c(I)c1 [NCGC00015096-17] | -2.1 | -100.133 | -98.715 | 1.85e-05 | 1.85e-05 | 18.5 | -4.7327 |  | 
3 | CNCCC(Oc1ccc(C(F)(F)F)cc1)c1ccccc1 (stereo not drawn) [NCGC00015428-15] | -2.2 | -78.657 | -76.003 | 1.65e-05 | 1.65e-05 | 16.5 | -4.7827 |  | 
4 | OCCN1CCN(CCCN2c3ccccc3Sc3ccc(C(F)(F)F)cc32)CC1 [NCGC00015436-11] | -3 | -75.446 | -79.581 | 2.61e-05 | 2.61e-05 | 26.1 | -4.5827 |  | 
5 | CC(C)(Sc1ccc(CCN(CCCCC2CCCCC2)C(=O)NC2CCCCC2)cc1)C(=O)O [NCGC00015480-13] | -2.2 | -93.466 | -98.662 | 3.29e-05 | 3.29e-05 | 32.9 |  |  | 
6 | O=C(Nc1ccc([N+](=O)[O-])cc1Cl)c1cc(Cl)ccc1O [NCGC00015735-11] | -1.1 | -106.368 | -100.429 |  |  | 0.362 | -6.4408 | 3.62e-07 | -6.4408
7 | O=C(Nc1ccc([N+](=O)[O-])cc1Cl)c1cc(Cl)ccc1O [NCGC00015735-12] | -1.1 | -94.574 | -99.55 |  |  | 1.04 | -5.9827 | 1.04e-06 | -5.9827
8 | CCCN(CC1CC1)c1nc(C)nc(Nc2c(Cl)cc(Cl)cc2Cl)c1Cl [NCGC00015737-02] | -3 | -116.403 | -99.557 | 3.69e-05 | 3.69e-05 | 36.9 | -4.4327 |  | 
9 | COC(=O)C1=C(C)NC(C)=C(C(=O)OCCN(C)Cc2ccccc2)C1c1cccc([N+](=O)[O-])c1 (stereo not drawn) [NCGC00015747-03] | -3 | -68.655 | -54.296 | 3.69e-05 | 3.69e-05 | 36.9 | -4.4327 |  | 
10 | O=c1[nH]c2ccccc2n1C1CCN(CCCC(c2ccc(F)cc2)c2ccc(F)cc2)CC1 [NCGC00015802-18] | -2.1 | -98.365 | -96.477 | 2.08e-05 | 2.08e-05 | 20.8 | -4.6827 |  | 
11 | COc1ccc(CCN(C)CCCC(C#N)(c2ccc(OC)c(OC)c2)C(C)C)cc1OC (stereo not drawn) [NCGC00016083-13] |  |  |  | 1.51e-05 | 1.51e-05 | 15.1 | -4.8199 |  | 
12 | CC(=O)O[C@H]1C(=O)[C@@]2(C)C([C@H](OC(=O)c3ccccc3)[C@]3(O)C[C@H](OC(=O)[C@H](O)[C@@H](NC(=O)c4ccccc4)c4ccccc4)C(C)=C1C3(C)C)[C@]1(OC(C)=O)CO[C@@H]1C[C@@H]2O (stereo partly drawn) [NCGC00024995-10] | -2.2 | -75.217 | -63.948 | 2.08e-05 | 2.08e-05 | 20.8 | -4.6827 |  | 
13 | C[S+]([O-])c1ccc(-c2nc(-c3ccc(F)cc3)c(-c3ccncc3)[nH]2)cc1 (stereo not drawn) [NCGC00025035-05] | -2.1 | -107.599 | -87.79 | 4.79e-05 | 4.79e-05 | 47.9 | -4.3199 |  | 
14 | CC#C[C@]1(O)CC[C@H]2[C@@H]3CCC4=CC(=O)CCC4=C3[C@@H](c3ccc(N(C)C)cc3)C[C@@]21C [NCGC00025179-12] | -3 | -109.046 | -95.447 | 2.61e-05 | 2.61e-05 | 26.1 | -4.5827 |  | 
15 | C[C@H]1O[C@@H](O[C@H]2[C@@H](O)C[C@H](O[C@H]3[C@@H](O)C[C@H](O[C@H]4CC[C@@]5(C)[C@H](CC[C@@H]6[C@@H]5C[C@@H](O)[C@]5(C)[C@@H](C7=CC(=O)OC7)CC[C@]65O)C4)O[C@@H]3C)O[C@@H]2C)C[C@H](O)[C@@H]1O [NCGC00090797-01] | -1.1 | -107.599 | -98.918 | 4.65e-07 | 4.65e-07 | 0.465 | -6.3327 |  | 
16 | Oc1c(Cl)cc(Cl)c(Cl)c1Cc1c(O)c(Cl)cc(Cl)c1Cl [NCGC00091195-08] | -1.1 | -99.169 | -99.917 | 2.33e-06 | 2.33e-06 | 2.33 | -5.6327 |  | 
17 | C[C@]12CC[C@@H]3c4ccc(O)cc4CC[C@H]3[C@@H]1CC[C@@H]2O [NCGC00091544-08] | -2.2 | -64.056 | -67.89 | 2.69e-05 | 2.69e-05 | 26.9 | -4.5699 |  | 
18 | CCCCCCCCCCC(C)(C)C(=O)Nc1c(OC)cc(OC)cc1OC [NCGC00092343-02] | -3 | -55.755 | -44.379 | 3.69e-05 | 3.69e-05 |  | -4.4327 |  | 
19 | CCCCCCCCCCCC(CC1OC(=O)C1CCCCCC)OC(=O)C(CC(C)C)NC=O (stereo not drawn) [NCGC00095128-04] | -2.1 | -95.825 | -91.668 | 2.93e-05 | 2.93e-05 | 29.3 | -4.5327 |  | 
20 | O=C1Nc2ccc(Cl)cc2[C@@](C#CC2CC2)(C(F)(F)F)O1 [NCGC00159337-04] | -2.1 | -93.261 | -95.737 | 1.65e-05 | 1.65e-05 | 16.5 | -4.7827 |  | 
